Measurements as given in PubChem BioAssay (NCI).
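Cultured in 96-well plates, cells were exposed to test compound for 48 hours across five concentrations. GI50 is the concentration that inhibits growth by half. TGI is the concentration that stops growth completely.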

Key:
Experiment in all cases: NCI-60 cell line screen, 48 h
[1] = tested on: HCT-116 colon
[2] = tested on: HCT-15 colon
[3] = tested on: NCI-H460 lung
[4] = tested on: NCI-H522 lung
[5] = tested on: OVCAR-3 ovarian
[6] = tested on: OVCAR-5 ovarian
[7] = tested on: SF-539 CNS
[8] = tested on: SN12C renal
[9] = tested on: SNB-75 CNS
[10] = tested on: U251 CNS

Question: For `C/C=C(\C)C(=O)N[C@H]1CC[C@]2(C)C3CC[C@@]4(C)C(CC[C@@H]4C(C)N(C)C)C3CCC2[C@H]1OC(C)=O` (stereo not given in full), which GI50 [1] is on record?
Answer: 1.04 µM

Question: What about the TGI [1] of the same compound?
Answer: 2.42 µM

Question: And the GI50 [2]?
Answer: 0.762 µM

Question: What about the TGI [2] of the same compound?
Answer: 2.4 µM

Question: And the GI50 [3]?
Answer: 0.923 µM

Question: What about the TGI [3] of the same compound?
Answer: 2.26 µM

Question: And the GI50 [4]?
Answer: 2.14 µM

Question: And the TGI [4]?
Answer: 5.24 µM

Question: What about the GI50 [5] of the same compound?
Answer: 1.59 µM

Question: What about the TGI [5] of the same compound?
Answer: 4.34 µM

Question: What about the GI50 [6] of the same compound?
Answer: 2.06 µM

Question: What about the TGI [6] of the same compound?
Answer: 5.65 µM

Question: What about the GI50 [7] of the same compound?
Answer: 1.16 µM

Question: What about the TGI [7] of the same compound?
Answer: 2.53 µM

Question: What about the GI50 [8] of the same compound?
Answer: 1.7 µM

Question: And the TGI [8]?
Answer: 4.26 µM

Question: What about the GI50 [9] of the same compound?
Answer: 1.65 µM

Question: And the TGI [9]?
Answer: 3.59 µM

Question: What about the GI50 [10] of the same compound?
Answer: 1.55 µM

Question: What about the TGI [10] of the same compound?
Answer: 3.56 µM

Question: For `COc1ccccc1OCC(=O)Nc1sc2c(c1C(N)=O)CCC2`, which GI50 [1] is on record?
Answer: > 100 µM

Question: And the TGI [1]?
Answer: > 100 µM

Question: What about the GI50 [2] of the same compound?
Answer: 33.4 µM

Question: And the TGI [2]?
Answer: > 100 µM

Question: And the GI50 [3]?
Answer: > 100 µM

Question: What about the TGI [3] of the same compound?
Answer: > 100 µM

Question: What about the GI50 [4] of the same compound?
Answer: > 100 µM

Question: What about the TGI [4] of the same compound?
Answer: > 100 µM

Question: And the GI50 [5]?
Answer: > 100 µM

Question: And the TGI [5]?
Answer: > 100 µM

Question: And the GI50 [6]?
Answer: > 100 µM

Question: What about the TGI [6] of the same compound?
Answer: > 100 µM

Question: What about the GI50 [7] of the same compound?
Answer: > 100 µM

Question: And the TGI [7]?
Answer: > 100 µM

Question: What about the GI50 [8] of the same compound?
Answer: > 100 µM

Question: And the TGI [8]?
Answer: > 100 µM

Question: And the GI50 [9]?
Answer: > 100 µM

Question: And the TGI [9]?
Answer: > 100 µM

Question: What about the GI50 [10] of the same compound?
Answer: > 100 µM

Question: And the TGI [10]?
Answer: > 100 µM

Question: Which GI50 [1] does the source give for `CCCN(CCC)C(=O)C1=Cc2ccc(-c3ccc(C(=O)N4CCCC4)cc3)cc2N=C(N)C1` here?
Answer: 4.55 µM

Question: What about the TGI [1] of the same compound?
Answer: 19.2 µM

Question: What about the GI50 [2] of the same compound?
Answer: 4.8 µM

Question: And the TGI [2]?
Answer: 23.1 µM

Question: And the GI50 [3]?
Answer: 4.46 µM

Question: What about the TGI [3] of the same compound?
Answer: 17.4 µM

Question: And the GI50 [4]?
Answer: 4.68 µM

Question: What about the TGI [4] of the same compound?
Answer: 18.8 µM

Question: And the GI50 [5]?
Answer: 8.19 µM

Question: What about the TGI [5] of the same compound?
Answer: 26.2 µM

Question: What about the GI50 [6] of the same compound?
Answer: 20.1 µM

Question: What about the TGI [6] of the same compound?
Answer: 64.9 µM

Question: What about the GI50 [7] of the same compound?
Answer: 11.7 µM

Question: And the TGI [7]?
Answer: 27 µM

Question: What about the GI50 [8] of the same compound?
Answer: 18.4 µM

Question: And the TGI [8]?
Answer: 60 µM

Question: What about the GI50 [9] of the same compound?
Answer: 3.8 µM

Question: What about the TGI [9] of the same compound?
Answer: 30.6 µM

Question: And the GI50 [10]?
Answer: 7.69 µM

Question: What about the TGI [10] of the same compound?
Answer: 24.6 µM

Question: What does the source list for `Cc1[nH]c2ccccc2c1C1Cc2ccccc2N1C(=O)/C=C/C=C/c1ccccc1` (stereo not given)?
Answer: TGI [1]: > 100 µM; TGI [2]: > 100 µM; TGI [3]: > 100 µM; TGI [4]: > 100 µM; TGI [5]: > 100 µM; TGI [6]: > 100 µM; TGI [7]: > 100 µM; TGI [8]: > 100 µM; TGI [9]: > 100 µM; TGI [10]: > 100 µM

Question: What does the source list for `O=C(Nc1ccccc1O)c1cccc(NC2=C(Cl)C(=O)N(Cc3ccccc3)C2=O)c1`?
Answer: GI50 [1]: 2.97 µM; TGI [1]: 12.1 µM; GI50 [2]: 2.02 µM; TGI [2]: 5.13 µM; GI50 [3]: 4.22 µM; TGI [3]: 14.9 µM; GI50 [4]: 9.02 µM; TGI [4]: 28.5 µM; GI50 [5]: 2.62 µM; TGI [5]: 7.85 µM; GI50 [6]: 13.4 µM; TGI [6]: 27.7 µM; GI50 [7]: 10.7 µM; TGI [7]: 25.4 µM; GI50 [8]: 2.22 µM; TGI [8]: 7.57 µM; GI50 [9]: 13.5 µM; TGI [9]: 33.1 µM; GI50 [10]: 3.38 µM; TGI [10]: 13.9 µM

Question: For `CN(C)c1ccc(N2Cc3ccccc3OC3=C2C(=O)c2c(O)ccc(O)c2C3=O)cn1`, which GI50 [1] is on record?
Answer: 0.124 µM

Question: And the TGI [1]?
Answer: 0.288 µM

Question: And the GI50 [2]?
Answer: 0.178 µM

Question: What about the TGI [2] of the same compound?
Answer: 0.502 µM

Question: And the GI50 [3]?
Answer: 1.28 µM

Question: What about the TGI [3] of the same compound?
Answer: 3.67 µM

Question: And the GI50 [4]?
Answer: 0.0535 µM

Question: What about the TGI [4] of the same compound?
Answer: 0.217 µM

Question: And the GI50 [5]?
Answer: 0.233 µM

Question: What about the TGI [5] of the same compound?
Answer: 0.695 µM

Question: What about the GI50 [6] of the same compound?
Answer: 0.51 µM

Question: What about the TGI [6] of the same compound?
Answer: 1.56 µM

Question: What about the GI50 [7] of the same compound?
Answer: 0.225 µM

Question: And the TGI [7]?
Answer: 0.602 µM

Question: And the GI50 [8]?
Answer: 0.261 µM

Question: What about the TGI [8] of the same compound?
Answer: 1.03 µM

Question: And the GI50 [9]?
Answer: 0.769 µM

Question: What about the TGI [9] of the same compound?
Answer: 6.93 µM

Question: And the GI50 [10]?
Answer: 0.311 µM

Question: What about the TGI [10] of the same compound?
Answer: 1.2 µM

Question: What does the source list for `Oc1ccc(-c2nnc3sc(-c4ccc(F)c(Oc5ccccc5)c4)nn23)cc1`?
Answer: GI50 [1]: 23.5 µM; TGI [1]: > 100 µM; GI50 [2]: 91.2 µM; TGI [2]: > 100 µM; GI50 [3]: 38.5 µM; TGI [3]: > 100 µM; GI50 [4]: 72.5 µM; TGI [4]: > 100 µM; GI50 [5]: 28.8 µM; TGI [5]: 76.4 µM; GI50 [6]: > 100 µM; TGI [6]: > 100 µM; GI50 [7]: 24.2 µM; TGI [7]: 65 µM; GI50 [8]: 37.6 µM; TGI [8]: > 100 µM; GI50 [9]: 26.4 µM; TGI [9]: 62.1 µM; GI50 [10]: 17.5 µM; TGI [10]: 36.5 µM

Question: How did the GI50 [1] turn out when `Cc1nn(-c2nc3ccccc3s2)c(C)c1Oc1ccccc1O` was run?
Answer: 2.03 µM

Question: What about the TGI [1] of the same compound?
Answer: 15.5 µM

Question: And the GI50 [2]?
Answer: 0.762 µM

Question: What about the TGI [2] of the same compound?
Answer: 17.7 µM

Question: What about the GI50 [3] of the same compound?
Answer: 0.654 µM

Question: What about the TGI [3] of the same compound?
Answer: 16.3 µM

Question: What about the GI50 [4] of the same compound?
Answer: 5.4 µM

Question: And the TGI [4]?
Answer: 28.9 µM

Question: And the GI50 [5]?
Answer: 9.98 µM

Question: What about the TGI [5] of the same compound?
Answer: 21.5 µM

Question: And the GI50 [6]?
Answer: 12.5 µM

Question: What about the TGI [6] of the same compound?
Answer: 25.7 µM

Question: And the GI50 [7]?
Answer: 2.52 µM

Question: What about the TGI [7] of the same compound?
Answer: 20.1 µM

Question: What about the GI50 [8] of the same compound?
Answer: 6.92 µM

Question: What about the TGI [8] of the same compound?
Answer: 22 µM

Question: And the GI50 [9]?
Answer: 1.73 µM

Question: And the TGI [9]?
Answer: 24.3 µM

Question: And the GI50 [10]?
Answer: 1.39 µM

Question: What about the TGI [10] of the same compound?
Answer: 16.3 µM

Question: For `C=C1C(=O)O[C@@H]2C[C@@]3(C)CCC[C@H](C)C3=C[C@H]12`, which TGI [1] is on record?
Answer: 16.2 µM

Question: What about the TGI [2] of the same compound?
Answer: 17.1 µM

Question: What about the TGI [3] of the same compound?
Answer: 31.7 µM

Question: And the TGI [4]?
Answer: 11.1 µM

Question: And the TGI [5]?
Answer: 19.5 µM

Question: What about the TGI [6] of the same compound?
Answer: 31.4 µM

Question: What about the TGI [7] of the same compound?
Answer: 22.5 µM

Question: And the TGI [8]?
Answer: 12.5 µM

Question: What about the TGI [9] of the same compound?
Answer: 13.4 µM

Question: What about the TGI [10] of the same compound?
Answer: 21.5 µM

Question: Which GI50 [1] does the source give for `C1=Cc2ccccc2Nc2ccccc21` here?
Answer: > 100 µM

Question: What about the TGI [1] of the same compound?
Answer: > 100 µM

Question: What about the GI50 [2] of the same compound?
Answer: > 100 µM

Question: What about the TGI [2] of the same compound?
Answer: > 100 µM

Question: What about the GI50 [3] of the same compound?
Answer: > 100 µM

Question: What about the TGI [3] of the same compound?
Answer: > 100 µM

Question: What about the GI50 [4] of the same compound?
Answer: > 100 µM

Question: And the TGI [4]?
Answer: > 100 µM

Question: What about the GI50 [5] of the same compound?
Answer: > 100 µM

Question: And the TGI [5]?
Answer: > 100 µM

Question: And the GI50 [6]?
Answer: > 100 µM

Question: What about the TGI [6] of the same compound?
Answer: > 100 µM

Question: And the GI50 [7]?
Answer: > 100 µM

Question: And the TGI [7]?
Answer: > 100 µM

Question: And the GI50 [8]?
Answer: > 100 µM

Question: And the TGI [8]?
Answer: > 100 µM

Question: What about the GI50 [9] of the same compound?
Answer: > 100 µM

Question: What about the TGI [9] of the same compound?
Answer: > 100 µM

Question: And the GI50 [10]?
Answer: > 100 µM

Question: And the TGI [10]?
Answer: > 100 µM

Question: `[O-]c1c2c(nn1-c1ccccc1)c1ccccc1c[n+]2Cc1ccccc1` was tested. Which TGI [1] did it give?
Answer: > 100 µM

Question: And the TGI [2]?
Answer: > 100 µM

Question: What about the TGI [3] of the same compound?
Answer: > 100 µM

Question: And the TGI [4]?
Answer: > 100 µM

Question: And the TGI [5]?
Answer: > 100 µM

Question: And the TGI [6]?
Answer: > 100 µM

Question: What about the TGI [7] of the same compound?
Answer: > 100 µM

Question: What about the TGI [8] of the same compound?
Answer: > 100 µM

Question: What about the TGI [9] of the same compound?
Answer: > 100 µM

Question: And the TGI [10]?
Answer: > 100 µM
